Assay results: ChEMBL document CHEMBL3632591, “Discovery and structural diversity of the hepatitis C virus NS3/4A serine protease inhibitor series leading to clinical candidate IDX320” (Bioorg Med Chem Lett, 2015)

What was measured:
Hepatitis C virus = experiment: Antiviral activity against HCV genotype 1b infected in human HuH7 cells after 3 days by luciferase assay; assay type: functional, organism-based, Hepacivirus hominis; details: Huh-7, 72 h
[1] = Cytotoxicity against human HuH7 cells by colorimetric proliferation assay; assay type: cell-based, Huh-7
[2] = Tmax in Sprague-Dawley rat at 2 mg/kg, iv administered as single dose; assay type: ADME, organism-based; details: in vivo
[3] = AUCt in Sprague-Dawley rat at 2 mg/kg, iv administered as single dose; assay type: ADME, organism-based; details: in vivo
[4] = Cmax in Sprague-Dawley rat plasma at 10 mg/kg, po administered as single dose measured after 24 hrs; assay type: ADME, organism-based; set-up: dose 10 mg/kg, route oral
[5] = Tmax in Sprague-Dawley rat at 10 mg/kg, po administered as single dose; assay type: ADME, organism-based; details: in vivo
[6] = AUCt in Sprague-Dawley rat at 10 mg/kg, po administered as single dose; assay type: ADME, organism-based; details: in vivo
[7] = AUC (infinity) in Sprague-Dawley rat at 10 mg/kg, po administered as single dose; assay type: ADME, organism-based; set-up: dose 10 mg/kg, time infinity, route oral; details: in vivo
[8] = AUC (infinity) in Sprague-Dawley rat at 2 mg/kg, iv administered as single dose; assay type: ADME, organism-based; set-up: dose 2 mg/kg, route intravenous, time infinity; details: in vivo
[9] = Plasma concentration in CD-1 mouse at 2 mg/kg, iv administered as single dose measured after 24 hrs; assay type: ADME, organism-based
[10] = Oral bioavailability in Sprague-Dawley rat at 10 mg/kg administered as single dose; assay type: ADME, organism-based; details: in vivo
[11] = Ratio of drug level in Sprague-Dawley rat liver to plasma at 10 mg/kg, po measured at 24 hrs; assay type: ADME, organism-based; details: liver and plasma
[12] = AUC (0 to 24 hrs) in CD-1 mouse at 2 mg/kg, iv administered as single dose measured after 24 hrs; assay type: ADME, organism-based; set-up: time < 24 hr, dose 2 mg/kg, route intravenous; details: in vivo
[13] = Volume of distribution in CD-1 mouse at 2 mg/kg, iv administered as single dose measured after 24 hrs; assay type: ADME, organism-based; details: in vivo
[14] = Clearance in CD-1 mouse at 2 mg/kg, iv administered as single dose measured after 24 hrs; assay type: ADME, organism-based; details: in vivo
[15] = Cmax in CD-1 mouse at 2 mg/kg, po administered as single dose; assay type: ADME, organism-based; set-up: dose 2 mg/kg, route oral; details: in vivo
[16] = Tmax in CD-1 mouse at 2 mg/kg, po administered as single dose; assay type: ADME, organism-based; details: in vivo
[17] = AUC (0 to 24 hrs) in CD-1 mouse at 2 mg/kg, po administered as single dose; assay type: ADME, organism-based; set-up: dose 2 mg/kg, time < 24 hr, route oral; details: in vivo
[18] = Plasma concentration in Cynomolgus monkey at 2 mg/kg, iv administered as single dose measured after 24 hrs; assay type: ADME, organism-based, Macaca fascicularis
[19] = AUC (infinity) in Cynomolgus monkey at 2 mg/kg, iv administered as single dose; assay type: ADME, organism-based, Macaca fascicularis; set-up: dose 2 mg/kg, route intravenous, time infinity; details: in vivo
[20] = Volume of distribution in Cynomolgus monkey at 2 mg/kg, iv administered as single dose; assay type: ADME, organism-based, Macaca fascicularis; details: in vivo
[21] = Half life in Cynomolgus monkey at 2 mg/kg, iv administered as single dose; assay type: ADME, organism-based, Macaca fascicularis; details: in vivo
[22] = Clearance in Cynomolgus monkey at 2 mg/kg, iv administered as single dose; assay type: ADME, organism-based, Macaca fascicularis; details: in vivo
[23] = Cmax in Cynomolgus monkey at 2 mg/kg, po administered as single dose; assay type: ADME, organism-based, Macaca fascicularis; set-up: dose 2 mg/kg, route oral; details: in vivo
[24] = Plasma concentration in Cynomolgus monkey at 2 mg/kg, po administered as single dose measured after 24 hrs; assay type: ADME, organism-based, Macaca fascicularis
[25] = Tmax in Cynomolgus monkey at 2 mg/kg, po administered as single dose; assay type: ADME, organism-based, Macaca fascicularis; details: in vivo
[26] = Half life in Cynomolgus monkey at 2 mg/kg, po administered as single dose; assay type: ADME, organism-based, Macaca fascicularis; details: in vivo
[27] = Inhibition of HCV genotype 1a NS3/4A protease; set-up: species or system Hepatitis C virus subtype 1a
[28] = Inhibition of HCV genotype 2a NS3/4A protease; set-up: species or system Hepatitis C virus subtype 2a
[29] = Inhibition of HCV genotype 4a NS3/4A protease; set-up: species or system Hepatitis C virus subtype 4a
[30] = Inhibition of HCV genotype 3a NS3/4A protease; set-up: species or system Hepatitis C virus subtype 3a
[31] = Cytotoxicity against monkey hepatocytes; assay type: cell-based, Macaca mulatta, Hepatocyte; details: rhesus monkey
[32] = Cytotoxicity against human hepatocytes; assay type: cell-based, Hepatocyte
Cytochrome P450 2B6 = molecular target: T1, Cytochrome P450 2B6 (Homo sapiens, UniProt P20813); experiment: Inhibition of human CYP2B6; assay type: ADME
T1 sequence (P20813 whole entry): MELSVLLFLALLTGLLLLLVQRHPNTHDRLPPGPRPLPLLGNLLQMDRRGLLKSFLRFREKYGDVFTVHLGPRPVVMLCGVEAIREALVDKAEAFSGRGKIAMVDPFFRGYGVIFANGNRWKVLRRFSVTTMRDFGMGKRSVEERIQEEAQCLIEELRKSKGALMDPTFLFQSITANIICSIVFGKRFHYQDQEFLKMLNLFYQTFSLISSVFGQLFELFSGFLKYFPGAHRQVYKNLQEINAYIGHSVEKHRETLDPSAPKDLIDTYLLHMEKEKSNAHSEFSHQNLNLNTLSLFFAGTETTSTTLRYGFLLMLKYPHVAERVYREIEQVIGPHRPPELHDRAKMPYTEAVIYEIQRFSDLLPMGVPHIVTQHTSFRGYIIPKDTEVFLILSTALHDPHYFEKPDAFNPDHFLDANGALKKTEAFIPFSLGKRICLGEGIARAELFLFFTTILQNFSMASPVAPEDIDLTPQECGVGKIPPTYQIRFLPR

Cytochrome P450 2C9 = Cytochrome P450 2C9 (Homo sapiens, UniProt P11712); experiment: Inhibition of human CYP2C9; assay type: ADME
[33] = molecular target: T2, UDP-glucuronosyltransferase 1A1 (Homo sapiens, UniProt P22309); experiment: Inhibition of human UGT1A1; assay type: ADME
T2 sequence (P22309 whole entry): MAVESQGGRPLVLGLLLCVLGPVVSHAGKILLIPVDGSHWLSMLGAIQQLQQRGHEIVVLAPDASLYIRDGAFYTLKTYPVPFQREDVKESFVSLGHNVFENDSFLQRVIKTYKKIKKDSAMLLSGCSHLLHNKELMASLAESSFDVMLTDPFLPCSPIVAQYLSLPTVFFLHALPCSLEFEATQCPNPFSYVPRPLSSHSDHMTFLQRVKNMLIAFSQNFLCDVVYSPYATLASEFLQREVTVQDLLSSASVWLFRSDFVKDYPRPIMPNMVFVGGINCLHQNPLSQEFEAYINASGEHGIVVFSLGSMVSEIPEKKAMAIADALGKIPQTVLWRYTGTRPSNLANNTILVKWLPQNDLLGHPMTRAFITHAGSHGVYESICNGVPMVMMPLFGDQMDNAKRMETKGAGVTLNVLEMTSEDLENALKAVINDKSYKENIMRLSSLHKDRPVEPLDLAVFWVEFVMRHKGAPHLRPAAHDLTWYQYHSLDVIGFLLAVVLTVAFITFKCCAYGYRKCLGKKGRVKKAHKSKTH

Rhesus monkey [34] = experiment: Toxicity in monkey assessed as effect on cardiovascular system at 250 mg/kg, po administered as single dose; assay type: organism-based, Macaca mulatta; details: in vivo
Rhesus monkey [35] = experiment: Toxicity in monkey assessed as effect on respiratory system at 250 mg/kg, po administered as single dose; assay type: organism-based, Macaca mulatta; details: in vivo
Mus musculus [36] = experiment: Toxicity in mouse assessed as effect on central nervous system at 250 mg/kg, po administered as single dose; assay type: organism-based; details: in vivo
Mus musculus [37] = experiment: Toxicity in mouse assessed as effect on gastrointestinal motility at 250 mg/kg, po administered as single dose; assay type: organism-based; details: in vivo
[38] = Inhibition of cellular protease (unknown origin); details: Homo sapiens

Chain of Cytochrome P450 2C9 (P11712 whole entry): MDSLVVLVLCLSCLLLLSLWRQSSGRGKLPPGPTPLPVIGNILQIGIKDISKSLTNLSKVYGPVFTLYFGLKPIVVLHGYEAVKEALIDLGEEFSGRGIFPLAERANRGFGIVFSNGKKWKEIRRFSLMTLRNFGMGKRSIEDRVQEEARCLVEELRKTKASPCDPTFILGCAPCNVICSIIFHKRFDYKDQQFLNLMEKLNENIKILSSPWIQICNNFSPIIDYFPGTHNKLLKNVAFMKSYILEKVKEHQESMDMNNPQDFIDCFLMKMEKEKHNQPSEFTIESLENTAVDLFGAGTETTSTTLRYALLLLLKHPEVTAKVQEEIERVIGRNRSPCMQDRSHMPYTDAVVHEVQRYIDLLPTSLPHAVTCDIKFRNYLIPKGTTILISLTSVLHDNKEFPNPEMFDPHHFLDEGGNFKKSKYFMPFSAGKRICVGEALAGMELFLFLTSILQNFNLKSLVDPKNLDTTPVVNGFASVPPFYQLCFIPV

**Q.** What does the source list for `COc1ccc2c(O[C@H]3CCN4C(=O)N(C)CCCCC=C[C@@H]5C[C@@]5(C(=O)NS(=O)(=O)C5(C)CC5)NC(=O)[C@@H]4C3)cc(-c3nc(C(F)(F)F)cs3)nc2c1C`?
**A.** EC50 (Hepatitis C virus): 0.7 nM; CC50 [1]: 52800 nM; Tmax [2]: 4.8 min; AUC(0-t) [3]: 1750 ng·h/mL; Cmax [4]: 934 ng/mL; Tmax [5]: 1 h; AUC(0-t) [6]: 3920 ng·h/mL; AUC(0-inf) [7]: 3970 ng·h/mL; AUC(0-inf) [8]: 1770 ng·h/mL; concentration at 24 h [9]: 7.9 ng/mL; bioavailability [10]: 45%; Kp at 24 h [11]: 61.7; AUC(0-t) at 24 h [12]: 4060 ng·h/mL; Vd [13]: 4.4 L/kg; clearance [14]: 8 mL/min/kg; Cmax [15]: 174 ng/mL; Tmax [16]: 2 h; AUC(0-t) at 24 h [17]: 1410 ng·h/mL; concentration at 24 h [18]: 66 ng/mL; AUC(0-inf) [19]: 9580 ng·h/mL; Vd [20]: 3.5 L/kg; half-life [21]: 10.3 h; clearance [22]: 3.83 mL/min/kg; Cmax [23]: 1030 ng/mL; concentration at 24 h [24]: 81 ng/mL; Tmax [25]: 1 h; half-life [26]: 7.6 h; IC50 [27]: 0.8 nM; IC50 [28]: 0.8 nM; IC50 [29]: 0.8 nM; IC50 [30]: 23 nM; CC50 [31]: > 10000 nM; CC50 [32]: > 10000 nM; IC50 (Cytochrome P450 2B6): ≥ 10000 nM; IC50 (Cytochrome P450 2C9): ≥ 10000 nM; IC50 [33]: ≥ 10000 nM; Activity (Rhesus monkey [34]): Non-toxic; Activity (Rhesus monkey [35]): Non-toxic; Activity (Mus musculus [36]): Non-toxic; Activity (Mus musculus [37]): Non-toxic; IC50 [38]: > 10000 nM
